# Assay results published in patent US8846653B2, “Delta-tocotrienol treatment and prevention of pancreatic cancer” (University of South Florida, priority 2006, dated 2014).
# B1: TRAIL: positive control for cell death (protein, UniProt P50591 1-281, looked up)
# Tumor necrosis factor ligand …: MAMMEVQGGPSLGQTCVLIVIFTVLLQSLCVAVTYVYFTNELKQMQDKYSKSGIACFLKEDDSYWDPNDEESMNSPCWQVKWQLRQLVRKMILRTSEETISTVQEKQQNISPLVRERGPQRVAAHITGTRGRSNTLSSPNSKNEKALGRKINSWESSRSGHSFLSNLHLRNGELVIHEKGFYYIYSQTYFRFQEEIKENTKNDKQMVQYIYKYTSYPDPILLMKSARNSCWSKDAEYGLYSIYQGGIFELKENDRIFVSVTNEHLIDMDHEASFFGAFLVG
# What was measured:
# Type in all cases: cell-based, human
# MIA PaCa-2 cells = assay: Trypan blue cell death, δ-tocotrienol, 5-FU or combination, 24 hours; details: MIA PaCa-2, 50 μM each
# Procedure: MIA PaCa-2 cells were treated vehicle or an anti-proliferative treatment comprising 50 μM δ-tocotrienol, 50 μM 5-FU, or 50 μM δ-tocotrienol and 50 μM 5-FU for 24 hours. Cells were harvested, fixed, permeablized and stained with trypan blue.
# MIA PaCa2 cells = assay: MTT cell viability, δ-tocotrienol, fluorouracil or combination
# Procedure: FIG. 39 is a graph MIA PaCa2 pancreatic cancer cells (3×10^3) treated with indicated concentrations of delta-tocotrienol, fluorouracil (5FU), or a combination of the indicated delta-tocotrienol and 5FU.
# The MiaPaCa 2 cells were plated as above into 96 well plates and treated the following day with increasing concentrations of δ-tocotrienol, fluorouracil (5FU), or a combination of δ-tocotrienol and fluorouracil. The cells were collected and analyzed for cell viability using an MTT assay. […] MIA PaCa2 cells (3×10^3) were cultured as described in the Examples above, in 96-well plates and treated the following day with vehicle, δ-tocotrienol, fluorouracil, or a combination of δ-tocotrienol and fluorouracil.
# [1] = tested on: MiaPaCa2 pancreatic cancer cells; assay: Malignant transformation (Soft Agar) colony formation; details: MiaPaCa2, 50 μM, vs vehicle
# Procedure: FIG. 20 is a graph showing the effect of tocotrienols on pancreatic cancer malignant transformation (Soft Agar). […] Bars, SE (n=3). *p<0.001 vs. vehicle. **p<0.02 vs. vehicle. ***p<0.05 vs. vehicle. T=tocopherol, T3=tocotrienol.
# MiaPaCa2 cells (3×10^3) were cultured as described in the Examples above, in 96-well plates and treated with 50 μM of different tocopherol or tocotrienol.
# [2] = tested on: MIA PaCa-2 cells (pZWL vector and myrAKT); assay: Cell death (trypan blue) in vector and myrAKT MIA PaCa-2 cells; details: MIA PaCa-2 vector vs myr-AKT cells, 24 hours, compared to vehicle
# Procedure: FIG. 12 is a graph wherein MIA PaCa-2 cells (pZWL vector and myrAKT) were treated without serum vehicle or δ-tocotrienol (50 μM) for 24 hours, with and without a 10-hour caspase 8/3 inhibitor pretreatment. Cells were also treated with TRAIL as a positive control. Cells were then harvested, fixed, permeablized and stained with trypan blue.
# To further identify the role of AKT in the apoptotic pathways noted in Example 2, functional overexpression of CA-AKT was analyzed in Mia-PaCa2 pancreatic cancer cells. MIA PaCa-2 cells were treated with pZWL vector and myrAKT, a retroviral vector encoding myristoylated AKT, with or without serum, vehicle, or δ-tocotrienol (40 or 50 μM) for 24 hours, with and without a 10-hour caspase 8 inhibitor pretreatment. Cells were also treated with TRAIL as a positive control. Cells were then harvested, fixed, permeablized and stained with trypan blue.
# The myristoylated AKT rescued δ-tocotrienol suppression PI3K-AKT signaling. The MiaPaCa-2 parental cell lines were stably transfected using constitutively active myristoylated AKT in a pWZL vector construct to generate MiaPaCa-2AKT cells. […] Lastly, pretreatment with caspase 3, 8 and 9 inhibitors rescued tocotrienol induced cell death.
molecule,measurement,setting,value
"O=c1[nH]cc(F)c(=O)[nH]1 [5-FU, fluorouracil]",cell death (Trypan Blue),MIA PaCa-2 cells,increased cell death
same,concentration at which the effect became significant vs vehicle,MIA PaCa2 cells,50 µM
Cc1cc(O)cc2c1O[C@](C)(CCC[C@H](C)CCC[C@H](C)CCCC(C)C)CC2 [δ-tocopherol],malignant transformation (Soft Agar),[1],no effect
B1,cell death,[2],comparable to vehicle
